# Laboratory results taken from patent US9790210B2, “N-(monocyclic aryl),N'-pyrazolyl-urea, thiourea, guanidine and cyanoguanidine compounds as TrkA kinase inhibitors” (Array BioPharma Inc., priority 2012, dated 2017).
# Structures can show the parent of a compound that is named as a salt.
# Molecular target: TrkA (Homo sapiens, UniProt P04629)
# Assay: TrkA LanthaScreen Eu Kinase Binding Assay
# Design: 6HIS tagged cytoplasmic domain from Invitrogen, Catalog No. PV3144; purchased Invitrogen PV3144
# Conditions: averaged IC50; TR-FRET binding assay; read-out: TrkA Enzyme IC50
# Description: TrkA binding activity was determined in a TrkA LanthaScreen™ Eu Kinase Binding Assay. 5 nM His-tagged recombinant human TrkA (6HIS tagged cytoplasmic domain from Invitrogen, Catalog No. PV3144) was incubated with 4 nM Alexa-Fluor® Tracer 236 (Invitrogen Cat. No. PV5592), 2 nM biotinylated anti-His (Invitrogen Cat. No. PV6090), and 2 nM europium-labeled Streptavidin (Invitrogen Cat. No. PV5899), in buffer (25 mM MOPS, pH 7.5, 5 mM MgCl2, 0.005% Triton X-100). Three fold serial dilutions of compounds of the invention in DMSO were added to a final percentage of 2% DMSO. After 60-minute incubation at 22° C., the reaction was measured using the EnVision mutlimode plate reader (PerkinElmer) via TR-FRET dual wavelength detection at […]. The percent of control was calculated using a ratiometric emission factor. The IC50 values were determined by fitting a four parameter model to the percent of control data.
# Table A provides averaged IC50 values for compounds of the invention when tested in the assay of Example A, where A represents an averaged IC50 value<100 nM; B represents an averaged IC50 value from 100 to 1,000 nM; and C represents an averaged IC50 value from 1,000 to 10,000 nM.
# TrkA, sequence (P04629 440-796 limits assumed): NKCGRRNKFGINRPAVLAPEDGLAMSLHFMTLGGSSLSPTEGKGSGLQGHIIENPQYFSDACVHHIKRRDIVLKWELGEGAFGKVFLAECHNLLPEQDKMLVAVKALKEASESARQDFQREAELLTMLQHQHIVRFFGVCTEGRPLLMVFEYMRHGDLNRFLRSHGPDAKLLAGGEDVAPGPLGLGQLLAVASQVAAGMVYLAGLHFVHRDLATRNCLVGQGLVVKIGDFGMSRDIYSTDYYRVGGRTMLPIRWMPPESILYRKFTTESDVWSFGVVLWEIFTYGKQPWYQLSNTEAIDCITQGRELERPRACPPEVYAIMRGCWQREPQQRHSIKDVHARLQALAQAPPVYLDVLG
row,Structure (SMILES),IC50
1,"COCCCc1cc(Cl)c(Cl)cc1NC(=O)Nc1c(C)c(OC[C@@H]2CN(C)CCO2)nn1-c1ccccc1 [Example 31, (S)-1-(4,5-dichloro-2-(3-methoxypropyl)phenyl)-3-(4-methyl-3-((4-methylmorpholin-2-yl)methoxy)-1-phenyl-1H-pyrazol-5-yl)urea]",< 100 nM
2,"CNC(=O)c1nn(-c2ccccc2)c(NC(=O)Nc2cc(Cl)c(Cl)cc2CC(F)(F)COC)c1C [Example 27, 5-(3-(4,5-dichloro-2-(2,2-difluoro-3-methoxypropyl)phenyl)ureido)-N,4-dimethyl-1-phenyl-1H-pyrazole-3-carboxamide]",< 100 nM
3,"COCCCc1cc(Cl)c(Cl)cc1NC(=O)Nc1c(C)c(OC2CCNCC2)nn1-c1ccccc1 [Example 42, 1-(4,5-dichloro-2-(3-methoxypropyl)phenyl)-3-(4-methyl-1-phenyl-3-(piperidin-4-yloxy)-1H-pyrazol-5-yl)urea hydrochloride]",< 100 nM
4,"COCCOc1nc(C)ccc1NC(=O)Nc1c(C)c(-c2cnn(C)c2)nn1-c1ccccc1 [Example 1, 1-(1′,4-dimethyl-1-phenyl-1H,1′H-[3,4′-bipyrazol]-5-yl)-3-(2-(2-methoxyethoxy)-6-methylpyridin-3-yl)urea]",1000 to 10000 nM
5,"COCCCc1cc(Cl)c(Cl)cc1NC(=O)Nc1c(C)c(OCCC2CCNCC2)nn1-c1ccccc1 [Example 40, 1-(4,5-dichloro-2-(3-methoxypropyl)phenyl)-3-(4-methyl-1-phenyl-3-(2-(piperidin-4-yl)ethoxy)-1H-pyrazol-5-yl)urea hydrochloride]",< 100 nM
6,"COCCOc1cc(Cl)c(F)cc1NC(=O)Nc1c(C)c(-c2cnn(C)c2)nn1-c1ccccc1 [Example 5, 1-(4-chloro-5-fluoro-2-(2-methoxyethoxy)phenyl)-3-(1′,4-dimethyl-1-phenyl-1H,1′H-[3,4′-bipyrazol]-5-yl)urea]",< 100 nM
7,"COCCCc1cc(Cl)c(Cl)cc1NC(=O)Nc1c(C)c(OCC2(F)CCNCC2)nn1-c1ccccc1 [Example 45, 1-(4,5-dichloro-2-(3-methoxypropyl)phenyl)-3-(3-((4-fluoropiperidin-4-yl)methoxy)-4-methyl-1-phenyl-1H-pyrazol-5-yl)urea hydrochloride]",< 100 nM
8,"COCCCc1cc(Cl)c(Cl)cc1NC(=O)Nc1c(C)c(OC[C@H]2CCCNC2)nn1-c1ccccc1 [Example 46, (S)-1-(4,5-dichloro-2-(3-methoxypropyl)phenyl)-3-(4-methyl-1-phenyl-3-(piperidin-3-ylmethoxy)-1H-pyrazol-5-yl)urea hydrochloride]",< 100 nM
9,"COCCCc1cc(Cl)c(Cl)cc1NC(=O)Nc1c(C)c(OC[C@H]2CN(C)CCO2)nn1-c1ccccc1 [Example 32, (R)-1-(4,5-dichloro-2-(3-methoxypropyl)phenyl)-3-(4-methyl-3-((4-methylmorpholin-2-yl)methoxy)-1-phenyl-1H-pyrazol-5-yl)urea]",< 100 nM
10,"COCCOc1nc(C)c(Cl)cc1NC(=O)Nc1c(C)c(-c2cnn(C)c2)nn1-c1ccccc1 [Example 6, 1-(5-chloro-2-(2-methoxyethoxy)-6-methylpyridin-3-yl)-3-(1′,4-dimethyl-1-phenyl-1H,1′H-[3,4′-bipyrazol]-5-yl)urea]",< 100 nM
11,"COCCCc1cc(Cl)c(Cl)cc1NC(=O)Nc1c(C)c(OCCN2CCNCC2)nn1-c1ccccc1 [Example 39, 1-(4,5-dichloro-2-(3-methoxypropyl)phenyl)-3-(4-methyl-1-phenyl-3-(2-(piperazin-1-yl)ethoxy)-1H-pyrazol-5-yl)urea dihydrochloride]",< 100 nM
12,"CNC(=O)c1nn(-c2ccccc2)c(NC(=O)Nc2cc(C(F)(F)F)ccc2CCCOC)c1C [Example 26, 5-(3-(2-(3-methoxypropyl)-5-(trifluoromethyl)phenyl)ureido)-N,4-dimethyl-1-phenyl-1H-pyrazole-3-carboxamide]",< 100 nM
13,"COCCOc1ncc(C(F)(F)F)cc1NC(=O)Nc1c(C)c(-c2cnn(C)c2)nn1-c1ccccc1 [Example 4, 1-(1′,4-dimethyl-1-phenyl-1H,1′H-[3,4′-bipyrazol]-5-yl)-3-(2-(2-methoxyethoxy)-5-(trifluoromethyl)pyridin-3-yl)urea]",100 to 1000 nM
14,"COCCOc1cc(Cl)ccc1NC(=O)Nc1c(C)c(-c2cnn(C)c2)nn1-c1ccccc1 [Example 11, 1-(4-chloro-2-(2-methoxyethoxy)phenyl)-3-(1′,4-dimethyl-1-phenyl-1H,1′H-[3,4′-bipyrazol]-5-yl)urea]",100 to 1000 nM
15,"COCCCc1cc(F)c(C(F)(F)F)cc1NC(=O)Nc1c(C)c(OC)nn1-c1ccccc1 [Example 48, 1-(4-fluoro-2-(3-methoxypropyl)-5-(trifluoromethyl)phenyl)-3-(3-methoxy-4-methyl-1-phenyl-1H-pyrazol-5-yl)urea]",< 100 nM

# Second part, the molecule after the results:
row,IC50,Structure (SMILES)
1,< 100 nM,"CNC(=O)c1nn(-c2ccccc2)c(NC(=O)Nc2cc(Cl)c(Cl)cc2CCCOC)c1C [Example 16, 5-(3-(4,5-dichloro-2-(3-methoxypropyl)phenyl)ureido)-N,4-dimethyl-1-phenyl-1H-pyrazole-3-carboxamide]"
2,< 100 nM,"COCCCc1ccc(C(F)(F)F)cc1NC(=O)Nc1c(C)c(-c2ccc(=O)n(C)c2)nn1-c1ccccc1 [Example 25, 1-(2-(3-methoxypropyl)-5-(trifluoromethyl)phenyl)-3-(4-methyl-3-(1-methyl-6-oxo-1,6-dihydropyridin-3-yl)-1-phenyl-1H-pyrazol-5-yl)urea]"
3,< 100 nM,"COCCOc1cc(Cl)c(Cl)cc1NC(=O)Nc1c(C)c(-c2cnn(C)c2)nn1-c1ccccc1 [Example 3, 1-(4,5-dichloro-2-(2-methoxyethoxy)phenyl)-3-(1′,4-dimethyl-1-phenyl-1H,1′H-[3,4′-bipyrazol]-5-yl)urea]"
4,< 100 nM,"COCCCc1cc(F)c(C(F)(F)F)cc1NC(=O)Nc1c(C)c(-c2ccc(=O)n(C)c2)nn1-c1ccccc1 [Example 17, 1-(4-fluoro-2-(3-methoxypropyl)-5-(trifluoromethyl)phenyl)-3-(4-methyl-3-(1-methyl-6-oxo-1,6-dihydropyridin-3-yl)-1-phenyl-1H-pyrazol-5-yl)urea]"
5,< 100 nM,"COCCCc1cc(Cl)c(Cl)cc1NC(=O)Nc1c(C)c(-c2ccc(=O)n(C)c2)nn1-c1ccccc1 [Example 13, 1-(4,5-dichloro-2-(3-methoxypropyl)phenyl)-3-(4-methyl-3-(1-methyl-6-oxo-1,6-dihydropyridin-3-yl)-1-phenyl-1H-pyrazol-5-yl)urea]"
6,< 100 nM,"COCCCc1cc(Cl)c(Cl)cc1NC(=O)Nc1c(C)c(OC[C@@H]2CCCN(C)C2)nn1-c1ccccc1 [Example 35, (R)-1-(4,5-dichloro-2-(3-methoxypropyl)phenyl)-3-(4-methyl-3-((1-methylpiperidin-3-yl)methoxy)-1-phenyl-1H-pyrazol-5-yl)urea]"
7,< 100 nM,"COCC(F)(F)Cc1cc(Cl)c(Cl)cc1NC(=O)Nc1c(C)c(-c2ccc(=O)n(C)c2)nn1-c1ccccc1 [Example 20, 1-(4,5-dichloro-2-(2,2-difluoro-3-methoxypropyl)phenyl)-3-(4-methyl-3-(1-methyl-6-oxo-1,6-dihydropyridin-3-yl)-1-phenyl-1H-pyrazol-5-yl)urea]"
8,< 100 nM,"COCCOc1cc(Cl)c(Cl)cc1NC(=O)Nc1c(C)c(-c2ccc(=O)n(C)c2)nn1-c1ccccc1 [Example 8, 1-(4,5-dichloro-2-(2-methoxyethoxy)phenyl)-3-(4-methyl-3-(1-methyl-6-oxo-1,6-dihydropyridin-3-yl)-1-phenyl-1H-pyrazol-5-yl)urea]"
9,< 100 nM,"COCCCc1cc(Cl)c(Cl)cc1NC(=O)Nc1c(C)c(OC[C@H]2CCCN(C)C2)nn1-c1ccccc1 [Example 34, (S)-1-(4,5-dichloro-2-(3-methoxypropyl)phenyl)-3-(4-methyl-3-((1-methylpiperidin-3-yl)methoxy)-1-phenyl-1H-pyrazol-5-yl)urea]"
